Consider 15 compounds from patent US5859007A, “CCK or gastrin modulating benzo [b][1,4] diazepines derivatives” (Glaxo Wellcome Inc., priority 1994, dated 1999).

Like-named read-outs stand apart in the source and are kept apart here. No end group written: not given here.

Assay [1] has as its system isolated guinea pig gallbladder. Nature of the assay: Functional activity in isolated guinea pig gallbladder preparation. The assay is classed as cell-based. Conditions: for activation at 30 µM / activation at 1 µM: Cavia porcellus; for activation at 1 µM: read-out: %Contraction (1 × 10^-6 M).
For another assay, the system named is rat gastric emptying. Nature of the assay: Rat gastric emptying assay. The assay is classed as in vivo. Conditions: vehicle 66. On the procedure:
7. RAT GASTRIC EMPTYING PROTOCOL
Methyl Cellulose (MC) Test Meal
1. Disperse MC in water at 80° C. at a final concentration of 1.5% under continuous stirring. Cool to room temperature.
2. Add Phenol Red (50 mg/100) to solution.
3. Keep solution stirring during entire experiment.
1. Food deprive animals for 18 hours.
2. Inject test drug/prop. glycol or prop. glycol alone intraperitoneally.
3. After 5 minutes, gavage 1.5 mL of Pheno Red/MC solution
1. After 20 minutes, decapitate animal
2. Clamp stomach at the pylorus and cardia ends, and rinse in 0.9% NaCl.
3. Place stomach in 100 mL of 0.1N NaOH, cut into small pieces, and homogenize for 30 seconds.
4. Let settle at room temperature for 60 minutes.
5. In centrifuge tube, add 5 mL of supernatant and 0.5 mL of trichloroacetic acid (29% w/v), and centrifuge at 2,800 rpm for 20 minutes.
6. Decant supernatant, and add 4 mL of 0.5N NaOH and read absorbance at a wavelength of 560 nm.
Calculations [formula] The standard stomach is determined from the phenol red recovered in stomachs of rats decapitated immediately after intragastric infusion of MC/phenol red.

Where [2] appears, read: delivered at 30 μM, read-out: Isolated guinea pig gallbladder: % contraction.
Where [3] appears, read: intraperitoneally at 0.1 μmoles/kg.
The mark [4] stands for this setting: 1 × 10^-6 M test compound, expressed as % CCK-induced maximal response.
Where [5] appears, read: 3 × 10^-5 M test compound, expressed as % CCK-induced maximal response, read-out: % Contraction (3 × 10^-5 M).

As to `COc1ccc(N(C(=O)CN2C(=O)C(Cc3n[nH]c4ccccc34)C(=O)N(c3ccccc3)c3ccccc32)C(C)C)cc1` (stereo not shown) [Example 31, 2-[3-(1H-Indazol-3-ylmethyl)-2,4-dioxo-5-phenyl-2,3,4,5-tetrahydro-benzo[b][1,4]diazepin-1-yl]-N-isopropyl-N-(4-methoxy-phenyl) acetamide], the activation at 30 µM in assay [1] (setting [2]) is 87%. Also, the “rat gastric emptying: % emptying” value in the assay with rat gastric emptying (setting [3]) was 6%.
Regarding `COc1ccc(N(C(=O)CN2C(=O)C(Cc3n[nH]c4ccccc34)C(=O)N(c3ccccn3)c3ccccc32)C(C)C)cc1` (stereo not shown) [Example 49, 2-[3-(1H-Indazol-3-ylmethyl)-2,4-dioxo-5-pyrid-2-yl-2,3,4,5-tetrahydro-benzo[b][1,4]diazepin-1-yl]-N-isopropyl-N-(4-methoxy-phenyl) acetamide], the activation at 1 µM in assay [1] (setting [4]) came to 75%. In addition, the activation at 30 µM in assay [1] (setting [5]) amounted to 91%; in assay [1] (setting [2]), 100%. Also, the “rat gastric emptying: % emptying” value with rat gastric emptying (setting [3]) was 2.5%.
As for `CC(C)N(C(=O)CN1C(=O)C(Cc2n[nH]c3cc(F)ccc23)C(=O)N(c2ccccc2)c2ccccc21)c1ccc(OC(F)(F)F)cc1` (stereo not shown) [Example 70, 2-[3-(6-Fluoro-1H-indazol-3-ylmethyl)-2,4-dioxo-5-phenyl-2,3,4,5-tetrahydro-benzo[b][1,4]diazepin-1-yl]-N-isopropyl-N-(4-trifluoromethoxy-phenyl)-acetamide], the activation at 1 µM in assay [1] (setting [4]) was determined as 66%. In addition, the activation at 30 µM in assay [1] (setting [5]) was found to be 73%.
For `COc1ccc(N(C(=O)CN2C(=O)C(Cc3n[nH]c4ccccc34)C(=O)N(c3cccnc3)c3ccccc32)C(C)C)cc1` (stereo not shown) [Example 71, 2-[3-(1H-indazol-3-ylmethyl)-2,4-dioxo-5-pyridin-3-yl-2,3,4,5-tetrahydrobenzo[b][1,4]diazepin-1-yl]-N-isopropyl-N-(4-methoxy-phenyl) acetamide] the same measures were 106% and 92%.
On to `COc1ccc(N(C(=O)CN2C(=O)C(C)(Cc3n[nH]c4ccccc34)C(=O)N(c3cccnc3)c3ccccc32)C(C)C)cc1` (stereo not shown) [Example 74, 2-[3-(1H-Indazol-3-ylmethyl)-3-methyl-2,4-dioxo-5-pyridin-3-yl-2,3,4,5-tetrahydro-benzo[b][1,4]diazepin-1-yl]-N-isopropyl-N-(4-methoxy-phenyl)-acetamide], for which the activation at 1 µM in assay [1] (setting [4]) was found to be 86%. Moreover, the activation at 30 µM in assay [1] (setting [5]) stood at 88%.
Consider `COc1ccc(N(C(=O)CN2C(=O)C(C)(Cc3n[nH]c4ccccc34)C(=O)N(c3cccnc3)c3ccccc32)C(C)C)cc1` (stereo not shown) [Example 76, 2-[3-(1H-indazol-3-ylmethyl)-3-methyl-2,4-dioxo-5-pyridin-3-yl-2,3,4,5-tetrahydro-benzo[b][1,4]diazepin-1-yl]-N-isopropyl-N-(4-methoxy-phenyl)-acetamide], for which, in assay [1] (setting [4]), the “%Contraction (1 × 10^-6 M)” value is listed as 93%. In addition, the “% Contraction (3 × 10^-5 M)” value in assay [1] (3 × 10^-5 M test compound, expressed as % CCK-induced maximal response) was 95%.
For `CC(C)N(C(=O)CN1C(=O)C(Cc2n[nH]c3ccccc23)C(=O)N(c2ccccc2)c2ccccc21)c1ccc2c(c1)OCO2` (stereo not shown) [Example 77, 2-[3-(1H-Indazol-3-ylmethyl)-2,4-dioxo-5-phenyl-2,3,4,5-tetrahydrobenzo[b][1,4]diazepin-1-yl]-N-isopropyl-N-(3,4-methylenedioxy-phenyl) acetamide], the activation at 1 µM in assay [1] (setting [4]) came to 78%. Besides, in assay [1] (setting [5]), the activation at 30 µM came out at 120%.
Take `COc1ccccc1N(C(=O)CN1C(=O)C(Cc2n[nH]c3ccccc23)C(=O)N(c2ccccc2)c2ccccc21)C(C)C` (stereo not shown) [Example 78, 2-[3-(1H-Indazol-3-ylmethyl)-2,4-dioxo-5-phenyl-2,3,4,5-tetrahydrobenzo[b][1,4]diazepin-1-yl]-N-isopropyl-N-(2-methoxy-phenyl) acetamide]: the activation at 1 µM in assay [1] (setting [4]) amounted to 43%.
Turning to `COc1cccc(N(C(=O)CN2C(=O)C(Cc3n[nH]c4ccccc34)C(=O)N(c3ccccc3)c3ccccc32)C(C)C)c1` (stereo not shown) [Example 79, 2-[3-(1H-Indazol-3-ylmethyl)-2,4-dioxo-5-phenyl-2,3,4,5-tetrahydrobenzo[b][1,4]diazepin-1-yl]-N-isopropyl-N-(3-methoxy-phenyl) acetamide], in assay [1] (setting [4]), the activation at 1 µM is 92%. The activation at 30 µM in assay [1] (setting [5]) was 93%.
`COc1ccc(N(C(=O)CN2C(=O)C(Cc3n[nH]c4ccccc34)C(=O)N(c3ccncc3)c3ccccc32)C(C)C)cc1` (stereo not shown) [Example 80, 2-[3-(1H-Indazol-3-ylmethyl)-2,4-dioxo-5-pyridin-4-yl-2,3,4,5-tetrahydro-benzo[b][1,4]diazepin-1-yl]-N-isopropyl-N-(4-methoxy-phenyl)-acetamide]: in assay [1] (setting [4]), the activation at 1 µM was found to be 81%. In addition, the activation at 30 µM in assay [1] (setting [5]) was determined as 73%.
`COc1ccc(N(C(=O)CN2C(=O)C(Cc3n[nH]c4ccccc34)C(=O)N(c3cccc(F)c3)c3ccccc32)C(C)C)cc1` (stereo not shown) [Example 81, 2-[5-(3-Fluoro-phenyl)-3-(1H-indazol-3-ylmethyl)-2,4-dioxo-2,3,4,5-tetrahydro-benzo[b][1,4]diazepin-1-yl]-N-isopropyl-N-(4-methoxy-phenyl)-acetamide]: the activation at 1 µM in assay [1] (setting [4]) amounted to 97%. In addition, the activation at 30 µM in assay [1] (setting [5]) is 96%.
As to `COc1ccc(N(C(=O)CN2C(=O)C(COCc3ccccc3)C(=O)N(c3ccccc3)c3ccccc32)C(C)C)cc1` (stereo not shown) [Example 82, 2-[3-(Benzyloxymethyl)-2,4-dioxo-5-phenyl-2,3,4,5-tetrahydro-benzo[b][1,4]diazepin-1-yl]-N-isopropyl-N-(4-methoxy-phenyl)-acetamide], in assay [1] (setting [4]), the activation at 1 µM was found to be 69%. In assay [1] (setting [5]), the activation at 30 µM stood at 89%.
With `CC(C)N(C(=O)CN1C(=O)C(Cc2n[nH]c3ccccc23)C(=O)N(c2cccnc2)c2ccccc21)c1ccccc1` (stereo not shown) [Example 83, 2-[3-(1H-Indazol-3-ylmethyl)-2,4-dioxo-5-pyridin-3-yl-2,3,4,5-tetrahydrobenzo[b][1,4]diazepin-1-yl]-N-isopropyl-N-phenyl acetamide], in assay [1] (setting [4]), the activation at 1 µM amounted to 85%. For the same compound, the activation at 30 µM in assay [1] (setting [5]) amounted to 97%.
Consider `COc1ccc(N(C(=O)CN2C(=O)C(C)(CC(=O)Nc3ccccc3)C(=O)N(c3cccnc3)c3ccccc32)C(C)C)cc1` (stereo not shown) [Example 84, N-Isopropyl-N-[4-methoxyphenyl]-2-[3-methyl-2,4-dioxo-3-phenylcarbamoylmethyl-5-pyridin-3-yl-2,3,4,5-tetrahydrobenzo[b][1,4]diazepin-1-yl) acetamide], for which, in assay [1] (setting [4]), the activation at 1 µM came out at 96%. The activation at 30 µM in assay [1] (setting [5]) is 96%.
Consider “CCK8: the Cterminal octapeptide of CCK (DYMGWMDF; ends and bridges not checked; UniProt P06307 96-103, looked up) [reference compound]”, for which, in assay [1] (delivered at 1 μM), the “Isolated guinea pig gallbladder: % contraction” value is 100%. In the assay on rat gastric emptying (CCK-8 intraperitoneally at 30 nmoles/kg), the “rat gastric emptying: % emptying” value is 0%.
